Measurements reported in patent US6521605B1, “Amidophosphate derivatives” (Eli Lilly and Company, priority 1998, dated 2003).

Biological target: T1, human GluR4B receptor (Homo sapiens, UniProt P48058)
T1 construct: expressed in transfected cells
Assay: potentiation of agonist-induced excitability of human GluR4B receptor expressed in HEK 293 cells
Type: cell-based
Conditions: human GluR4B expressed in HEK 293 cells
From the text: The ability of compounds of formula I to potentiate glutamate receptor-mediated response may be determined using fluorescent calcium indicator dyes (Molecular Probes, Eugene, Oreg., Fluo-3) and by measuring glutamate-evoked efflux of calcium into GluR4 transfected HEK293 cells, as described in more detail below.
In one test, 96 well plates containing confluent monolayers of HEK cells stably expressing human GluR4B (obtained as described in European Patent Application Publication Number EP-A1-583917) are prepared. The tissue culture medium in the wells is then discarded, and the wells are each washed once with 200 μl of buffer (glucose, 10 mM, sodium chloride, 138 mM, magnesium chloride, 1 mM, potassium chloride, 5 mM, calcium chloride, 5 mM, N-[2-hydroxyethyl]-piperazine-N-[2-ethanesulfonic acid], 10 mM, to pH 7.1 to 7.3). […]
Each test is then performed as follows. […] A second fluorescent reading is taken after 5 minutes incubation. 15 μl of 400 μM glutamate solution is then added to each well (final glutamate concentration 100 μM), and a third reading is taken. The activities of test compounds and cyclothiazide solutions are determined by subtracting the second from the third reading (fluorescence due to addition of glutamate in the presence or absence of test compound or cyclothiazide) and are expressed relative to enhance fluorescence produced by 100 μM, cyclothiazide.

T1 sequence (P48058 21-902): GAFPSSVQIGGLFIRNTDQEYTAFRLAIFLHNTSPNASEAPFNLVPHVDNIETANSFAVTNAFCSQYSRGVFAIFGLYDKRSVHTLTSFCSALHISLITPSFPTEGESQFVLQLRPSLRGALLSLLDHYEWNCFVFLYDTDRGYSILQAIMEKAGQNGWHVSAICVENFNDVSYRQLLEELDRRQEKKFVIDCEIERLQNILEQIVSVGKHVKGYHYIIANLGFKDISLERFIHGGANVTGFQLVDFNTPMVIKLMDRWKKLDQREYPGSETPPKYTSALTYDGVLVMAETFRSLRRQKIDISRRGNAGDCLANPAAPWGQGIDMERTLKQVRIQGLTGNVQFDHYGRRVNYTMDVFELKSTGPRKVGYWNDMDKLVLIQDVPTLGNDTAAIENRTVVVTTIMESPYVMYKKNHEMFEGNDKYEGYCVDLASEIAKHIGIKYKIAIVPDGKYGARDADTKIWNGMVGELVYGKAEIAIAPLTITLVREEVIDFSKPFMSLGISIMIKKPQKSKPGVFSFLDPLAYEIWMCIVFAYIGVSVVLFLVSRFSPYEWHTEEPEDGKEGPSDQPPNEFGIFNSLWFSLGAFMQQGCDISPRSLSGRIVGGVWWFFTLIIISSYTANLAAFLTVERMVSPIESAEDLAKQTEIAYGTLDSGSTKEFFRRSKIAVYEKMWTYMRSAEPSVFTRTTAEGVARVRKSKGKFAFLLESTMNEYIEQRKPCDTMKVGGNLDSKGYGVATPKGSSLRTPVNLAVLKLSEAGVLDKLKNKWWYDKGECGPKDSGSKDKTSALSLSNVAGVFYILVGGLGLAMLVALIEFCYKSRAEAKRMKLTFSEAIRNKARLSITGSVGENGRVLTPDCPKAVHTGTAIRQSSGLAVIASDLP

`NS(=O)(=O)c1cc2c(cc1Cl)NC(C1CC3C=CC1C3)NS2(=O)=O` (stereo not shown) [cyclothiazide] was tested, and the “potentiation of agonist-induced excitability of human GluR4B receptor” value was “potentiate agonist-induced excitability”.
